Measurements reported in publication PMC7122770, “Potential endocrine disrupting properties of toys for babies and infants” (PLoS ONE, 2020).
Structures can show the parent of a compound that is named as a salt. Where two headings read alike, the source gives them in different places.

Tests used:
[1] = target: T1, human estrogen receptor (Estrogen Receptor α) (Homo sapiens, UniProt P03372); assay: Analysis of detected pure substances in ER-CALUX; format: cell-based; conditions: for % E2 max: mean of triplicates
T1 sequence (P03372 1-595): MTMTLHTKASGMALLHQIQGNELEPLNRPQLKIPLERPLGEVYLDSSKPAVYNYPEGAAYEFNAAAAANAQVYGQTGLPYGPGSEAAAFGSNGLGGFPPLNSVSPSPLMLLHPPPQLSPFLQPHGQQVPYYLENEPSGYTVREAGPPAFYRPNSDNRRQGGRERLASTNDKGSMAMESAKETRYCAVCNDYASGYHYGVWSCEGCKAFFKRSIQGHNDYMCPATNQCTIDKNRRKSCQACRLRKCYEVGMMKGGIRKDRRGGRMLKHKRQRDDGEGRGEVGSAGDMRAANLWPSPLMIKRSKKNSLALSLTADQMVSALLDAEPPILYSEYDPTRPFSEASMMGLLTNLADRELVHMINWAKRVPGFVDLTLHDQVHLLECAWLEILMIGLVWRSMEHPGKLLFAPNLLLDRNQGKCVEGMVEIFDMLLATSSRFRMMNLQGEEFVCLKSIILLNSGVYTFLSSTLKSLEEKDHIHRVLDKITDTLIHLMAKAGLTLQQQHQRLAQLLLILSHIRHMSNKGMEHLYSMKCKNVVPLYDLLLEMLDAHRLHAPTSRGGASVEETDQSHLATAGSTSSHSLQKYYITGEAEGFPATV

[2] = cited from earlier work
[3] = Toxicological reference values (TDI, ADI, reference dose); design: species or system human
From the text: Risks were estimated by comparing the daily exposure (DE) to toxicological reference values (TRV) when available.

[4] = cited from earlier work; remark: listed apart in the source
[5] = system: U2-OS osteosarcoma cell line; assay: Cytotoxic effects / cell viability in the CALUX cells; format: cell-based, human; conditions: two highest concentrations in ER-CALUX
[6] = pure substance in ER-CALUX, read-out: EC50
[7] = 2,50E-06 mol/l in bioassay medium
[8] = 5,00E-06 mol/l in bioassay medium
[9] = 2,50E-04 mol/l in bioassay medium
[10] = 5,00E-04 mol/l in bioassay medium
[11] = 5,00E-05 mol/l in bioassay medium

CCCCCCCC/C=C\CCCCCCCCCCCC(N)=O [13-Docosenamide (Z)]
endocrine activity in the in vitro tests used in this study ([1]; pure substance): not endocrine active | Estrogen active [yes/no] ([1]; pure substance in ER-CALUX): no | EC50 [1, 6]: > 500 µM

CCCCOC(=O)CC(CC(=O)OCCCC)(OC(C)=O)C(=O)OCCCC [Acetyl tributyl citrate (ATBC), Acetyl tributyl citrate]
estrogenic or androgenic activity ([2]; based on published data ref 2): does not seem to show estrogenic or androgenic activity

C#C[C@]1(O)CC[C@H]2[C@@H]3CCc4cc(O)ccc4[C@H]3CC[C@@]21C [17α-ethinyl estradiol, reference compound]
fold lower ADI than 17β-estradiol [3]: approximately 400 fold | in vitro estrogen activity compared with 17β-estradiol [2]: approximatively the same in vitro estrogen activity as the natural sex hormone 17β-estradiol | acceptable daily intake (ADI) ([4]; adult person (60 kg), based on working place thresholds ref 40): 7 ng

CC(C)(c1ccc(O)cc1)c1ccc(O)cc1 [Bisphenol A (BPA), Bisphenol A]
% E2 max [1, 7]: 151% | % E2 max [1, 8]: 154% | % E2 max ([1]; 5,00E-07 mol/l in bioassay medium): 116% | % E2 max ([1]; 5,00E-08 mol/l in bioassay medium): 11% | % E2 max ([1]; 5,00E-09 mol/l in bioassay medium): 5% | factor less estrogen active than the natural estrogen 17β-estradiol ([1]; based on response curves in ER-CALUX (Fig 2)): ~30.000 | temporary tolerable daily intake (TDI) ([4]; recommended by EFSA, taking into account endocrine effects ref 43): 4 μg/kg body weight per day

CC(C)C(=O)OCC(C)(C)C(OC(=O)C(C)C)C(C)C (centres unmarked) [2,2,4-Trimethyl-1,3-pentanediol diisobutyrate]
EC50 [1]: > 500 µM | Estrogen active [yes/no] ([1]; pure substance in ER-CALUX): no | Estrogen active [yes/no] ([1]; pure substance in ER-CALUX, listed as TXIB): negative

CCCCOC(=O)CC(O)(CC(=O)OCCCC)C(=O)OCCCC [Tributyl citrate (TBC), Tributyl citrate]
% E2 max [1, 9]: 8% | % E2 max [1, 7]: 4% | % E2 max [1, 10]: 3% | % E2 max [1, 11]: 34% | % E2 max [1, 8]: 6% | Estrogen active [yes/no] ([1]; pure substance in ER-CALUX): yes | Estrogen active [yes/no] ([1]; pure substance in ER-CALUX, listed as TBC): low, but significant estrogen activity | EC50 [1, 6]: 50 µM | cell viability [5]: decrease in cell viability

CC(C)CCCCCCOC(=O)C1CCCCC1C(=O)OCCCCCCC(C)C (centres unmarked) [Diisononyl cyclohexane-1,2-dicarboxylate]
Estrogen active [yes/no] ([1]; pure substance in ER-CALUX): no | Estrogen active [yes/no] ([1]; pure substance in ER-CALUX, listed as DINCH): negative | EC50 [1, 6]: > 500 µM | lowest reference value published [4]: 0.7 mg/kg bw/day

O=C(c1ccccc1)c1ccccc1 [Benzophenone]
tolerable daily intake (TDI) ([4]; recommended by the European Food Safety Agency ref 43): 30 μg/kg body weight per day

CCOC(=O)c1ccccc1C(=O)OCC [Diethyl phthalate (DEP), Diethyl phthalate]
% E2 max [1, 9]: 47% | % E2 max [1, 7]: 9% | % E2 max [1, 10]: 69% | % E2 max [1, 11]: 23% | % E2 max [1, 8]: 10% | Estrogen active [yes/no] ([1]; pure substance in ER-CALUX): yes | EC50 [1, 6]: 200 µM
